Assay results taken from patent US20010027209A1, “Method and composition for treating and preventing mycobacterium infections” (Sarawak Medichem Pharmaceuticals, Inc., priority 1998, published 2001).
Values after ≈ are worked out from the molar mass of the structure shown. Values joined by “and” are separate entries in the source; they are usually repeats but may differ in a detail not shown here. Equal entries are not always repeated. Where two headings read alike, the source gives them in different places.

What was measured:
[1] = test system: Mycobacterium tuberculosis H37Rv; assay: in vitro primary screening assay in BACTEC 12B medium, BACTEC 460 radiometric system; type: cell-based; details: for inhibition at 12.5 µg/mL: H37RV; for MIC: M. tuberculosis H37Rv
[2] = test system: Mtb; details: against Mtb, background section; cited from earlier work
[3] = test system: M. tuberculosis H37Rv; assay: actual minimum inhibitory concentration (MIC) at lower concentrations, BACTEC 460; type: cell-based; details: Mycobacterium tuberculosis, lowest concentration inhibiting 99% of the inoculum
[4] = concentration 12.5 μg/mL, BACTEC 12B medium
[5] = Mycobacterium tuberculosis, concentration 12.5 μg/mL, BACTEC 12B medium, read-out: inhibition against Mtb H37Rv
[6] = Mycobacterium tuberculosis, table of Example 38, 12.5 μg/mL, read-out: % Inhibition
[7] = Mycobacterium tuberculosis, table of Example 38, read-out: MIC
[8] = table of Example 38, 12.5 μg/mL

Molecule | inhibition against Mtb H37Rv [1, 4] | % Inhibition [1, 8] | MIC ([1]; table of Example 38) | also measured
(−)-Calanolide A | 98% |  |  | 
(+)-Calanolide A | 98% and 96% |  |  | 
C[C@H]1[C@H](C)Oc2c3c(c4c(-c5ccccc5)cc(=O)oc4c2[C@H]1O)OC(C)(C)C=C3 [Soulattrolide] |  |  |  | inhibition at 12.5 µg/mL [1, 5]: 99%; inhibition at 12.5 µg/mL [1, 6]: 99%; MIC [1, 7]: < 12.5 mg/L
CCCc1cc(=O)oc2c3c(c4c(c12)OC(C)(C)C=C4)OC(C)C(C)C3=O (single isomer, unassigned; (-)) [(−)-Trans-ketone] |  | 78% | <12.5 mg/L | 
CCCc1cc(=O)oc2c3c(c4c(c12)OC(C)(C)C=C4)OC(C)C(C)C3=O (racemic) [(±)-Trans-ketone, 10,11-trans-dihydro-4-propyl-6,6,10,11-tetramethyl-2 H,6 H,12 H-benzo[1,2-b:3,4b′:5,6-b″]-tripyran-2,12-dione] |  | 59% | <12.5 mg/L | 
NC(=O)c1cnccn1 [Pyrazinamide] |  |  |  | MIC [2]: 20 mg/L (≈ 162 µM)
(−)-7,8-dihydrosoulattrolide [(−)-7,8-Dihydrosoulatrolide] | 99% | 99% | <12.5 mg/L | 
CCCc1cc(=O)oc2c3c(c4c(c12)OC(C)(C)C=C4)O[C@@H](C)[C@H](C)[C@@H]3O [Costatolide, (−)-calanolide B] |  |  |  | inhibition at 12.5 µg/mL [1, 5]: 99%; inhibition at 12.5 µg/mL [1, 6]: 99%; MIC [1, 7]: < 12.5 mg/L
CO[C@H]1/C=C/O[C@@]2(C)Oc3c(C)c(O)c4c(O)c(c(/C=N/N5CCN(C)CC5)c(O)c4c3C2=O)NC(=O)/C(C)=C\C=C\[C@H](C)[C@H](O)[C@@H](C)[C@@H](O)[C@@H](C)[C@H](OC(C)=O)[C@@H]1C [rifampicin] |  |  |  | MIC [3]: 0.06 mg/L (≈ 0.0729 µM)
CCCc1cc(=O)oc2c3c(c4c(c12)OC(C)(C)CC4)OC(C)C(C)C3=O (racemic) [(±)-Trans-dihydroketone, (±)-10,11-trans-4-Propyl-7,8,10,11-tetrahydro-6,6,10,11-tetramethyl-2 H,6 H,12 H-benzo[1,2-b:3,4-b′:5,6-b″]tripyran-2,12-dione] |  | 43% | <12.5 mg/L | 
